The experiment addresses catalytic domain of the human GARFT (Homo sapiens, UniProt P22102). The experiment in a line: biochemical.

In US5981748A, “Synthesis of optically pure compounds useful as GARFT inhibitors and their intermediates” (Agouron Pharmaceuticals, Inc., priority 1998, dated 1999) one finds Ki data, which are given here for one molecule.

catalytic domain of the human GARFT, sequence (P22102 810-1010 limits assumed): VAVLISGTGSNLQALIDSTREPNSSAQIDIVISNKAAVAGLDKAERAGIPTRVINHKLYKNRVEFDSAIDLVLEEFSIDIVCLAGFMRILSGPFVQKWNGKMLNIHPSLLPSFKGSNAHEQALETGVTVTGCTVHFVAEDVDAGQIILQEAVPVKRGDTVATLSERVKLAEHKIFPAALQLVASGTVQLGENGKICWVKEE
Protocol: Reactions mixtures were prepared containing the catalytic domain of the human GARFT, 0-250 nM test compound, 20 μM glycinamide ribonucleotide (GAR), 10 or 20 μM N^10 -formyl-5,8-dideazafolate (FDDF), 50 mM HEPES-KOH (pH 7.5), and 50 mM KCl. The reaction was initiated with the addition of enzyme to a final concentration of 11 nM, followed by monitoring of the increase in absorbance at 294 nm at 20° C. (ε294 =18.9 mM^-1 cm^-1).
The GARFT inhibition constant (Ki) was determined from the dependence of the steady-state catalytic rate on the inhibitor and substrate concentration. […] The Michaelis constant for FDDF, Km, was determined independently by the dependence of the catalytic rate on the FDDF concentration. Data for both the Km and Ki determinations were fitted by non-linear methods to the Michaelis equation or to the Michaelis equation for competitive inhibition, as appropriate.

As a reminder, the Ki is the dissociation constant of the complex between target and ligand, obtained from inhibition or displacement. Regarding `Nc1nc2c(c(=O)[nH]1)S[C@H](CCc1ccc(C(=O)N[C@@H](CCC(=O)O)C(=O)O)s1)CN2` [Compound 15, 2-(5-[2-(2-Amino-4-oxo-4,6,7,8-tetrahydro-3H-pyrimido[5,4-b][1,4]thiazin-6(R)-yl)-ethyl]-thiophene)-2-L-glutamic acid], the affinity, expressed as Ki, was 3 nM.
